Data: ChEMBL document CHEMBL1201862, “PubChem BioAssay data set” (2004)
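Values below derive from 48-hour exposures of cells grown in 96-well plates, with endpoints linearly interpolated between the two concentrations bracketing the appropriate inhibition level. GI50 = concentration required for 50% inhibition of growth.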 The source made the active and inactive calls. Rule as the data show it: active = GI50 up to about 1.1 µM and inactive = higher.

Columns and labels:
Assay in all cases: inhibition of tumour cell growth, NCI panel, 48 h
OVCAR-5 = system: OVCAR-5
COLO 205 = system: COLO 205
A549 = system: A549
OVCAR-3 = system: OVCAR-3
NCI-H226 = system: NCI-H226
CCRF-CEM = system: CCRF-CEM
786-0 = system: 786-0
NCI-H460 = system: NCI-H460
UACC-257 = system: UACC-257
NCI-H522 = system: NCI-H522
SF-268 = system: SF-268
HOP-62 = system: HOP-62
Malme-3M = system: Malme-3M
TK-10 = system: TK-10
SNB-75 = system: SNB-75
EKVX = system: EKVX
MOLT-4 = system: MOLT-4

Measured: GI50

CC(C)(C)[C@H]1CO[C@]2(c3ccccc3)[C@@H]3C[C@@H]3C(=O)N12
inactive: OVCAR-5 > 100 µM | COLO 205 > 100 µM | A549 > 100 µM | OVCAR-3 > 100 µM | NCI-H226 > 100 µM | CCRF-CEM > 10 µM | 786-0 > 100 µM | NCI-H460 > 100 µM | UACC-257 > 100 µM | NCI-H522 > 100 µM | SF-268 > 100 µM | HOP-62 > 100 µM | Malme-3M > 100 µM | TK-10 > 100 µM | SNB-75 > 100 µM | EKVX > 100 µM

NC(=S)N/N=C1/C(=O)N(c2ccc(Cl)cc2Cl)C(=O)C(=O)C1c1nc2ccccc2s1 (stereo not drawn)
inactive: OVCAR-5 > 100 µM | COLO 205 > 100 µM | OVCAR-3 > 100 µM | NCI-H226 > 100 µM | 786-0 > 100 µM | NCI-H460 > 100 µM | UACC-257 > 100 µM | NCI-H522 > 100 µM | SF-268 > 100 µM | HOP-62 > 100 µM | MOLT-4 52.1 µM | Malme-3M > 100 µM | TK-10 > 100 µM | SNB-75 > 100 µM | EKVX > 100 µM

COc1cc(Cl)cc(N(O)C(C)=O)c1OCc1ccccc1
inactive: OVCAR-5 > 100 µM | COLO 205 > 100 µM | A549 68.5 µM | OVCAR-3 74.6 µM | NCI-H226 65.8 µM | CCRF-CEM 38.1 µM | 786-0 61.8 µM | NCI-H460 48.1 µM | UACC-257 > 100 µM | NCI-H522 62.1 µM | SF-268 44.8 µM | HOP-62 65.6 µM | MOLT-4 50.4 µM | Malme-3M > 100 µM | TK-10 79.4 µM | SNB-75 24.8 µM | EKVX 30.9 µM

COc1ccc(NC(=O)CC/C(CC(=O)C(C)(C)C)=N\NC(=O)C(=O)NN)cc1
inactive: OVCAR-5 > 100 µM | COLO 205 > 100 µM | A549 > 100 µM | OVCAR-3 > 100 µM | NCI-H226 > 100 µM | CCRF-CEM > 100 µM | 786-0 > 100 µM | NCI-H460 > 100 µM | UACC-257 > 100 µM | NCI-H522 44.2 µM | SF-268 > 100 µM | HOP-62 > 100 µM | MOLT-4 > 100 µM | Malme-3M > 100 µM | TK-10 > 100 µM | SNB-75 > 100 µM | EKVX > 100 µM

O=c1[nH]cnc2c(COCCO)c[nH]c12
inactive: OVCAR-5 > 100 µM | COLO 205 > 100 µM | OVCAR-3 > 100 µM | NCI-H226 > 100 µM | CCRF-CEM > 100 µM | 786-0 > 100 µM | NCI-H460 > 100 µM | UACC-257 > 100 µM | NCI-H522 > 100 µM | SF-268 > 100 µM | HOP-62 > 100 µM | MOLT-4 > 100 µM | Malme-3M > 100 µM | TK-10 > 100 µM | SNB-75 > 100 µM | EKVX > 100 µM

COC(=O)C(C(=O)Cc1ccccc1[N+](=O)[O-])C(=O)OC
inactive: COLO 205 > 100 µM | A549 > 100 µM | OVCAR-3 > 100 µM | NCI-H226 > 100 µM | CCRF-CEM 74.6 µM | 786-0 > 100 µM | NCI-H460 > 100 µM | UACC-257 > 100 µM | NCI-H522 > 100 µM | SF-268 > 100 µM | HOP-62 > 100 µM | MOLT-4 > 100 µM | Malme-3M > 100 µM | TK-10 > 100 µM | SNB-75 > 100 µM | EKVX > 100 µM

Cc1c(N)c(C#N)c2n(C)c3ncccc3n2c1=O
inactive: COLO 205 > 100 µM | A549 > 100 µM | OVCAR-3 > 100 µM | NCI-H226 > 100 µM | CCRF-CEM > 100 µM | 786-0 > 100 µM | NCI-H460 > 100 µM | UACC-257 > 100 µM | NCI-H522 > 100 µM | SF-268 > 100 µM | HOP-62 > 100 µM | MOLT-4 > 100 µM | Malme-3M > 100 µM | TK-10 > 100 µM | SNB-75 > 100 µM | EKVX > 100 µM

CCOC(=O)C1(C(=O)OCC)C(C(C)(C)C)=C(C)c2ccccc21
inactive: OVCAR-5 14.4 µM | COLO 205 13.3 µM | A549 18.1 µM | OVCAR-3 11.9 µM | NCI-H226 14.5 µM | CCRF-CEM 13.1 µM | 786-0 15.8 µM | NCI-H460 11.9 µM | UACC-257 12.2 µM | NCI-H522 10.1 µM | SF-268 16.8 µM | HOP-62 20.3 µM | MOLT-4 29.9 µM | Malme-3M 11.4 µM | TK-10 30.1 µM | SNB-75 19.3 µM | EKVX 20.1 µM

COC(=O)C1=CC2C(=O)OC1CC2C#N (stereo not drawn)
inactive: COLO 205 > 100 µM | A549 > 100 µM | OVCAR-3 > 100 µM | NCI-H226 > 100 µM | CCRF-CEM > 100 µM | 786-0 > 100 µM | NCI-H460 > 100 µM | UACC-257 > 100 µM | NCI-H522 > 100 µM | SF-268 > 100 µM | HOP-62 > 100 µM | MOLT-4 > 100 µM | Malme-3M > 100 µM | TK-10 > 100 µM | SNB-75 > 100 µM

CCOC(=O)c1c2ccc(/C=C/C(=O)OC)ccc-2c(C(=O)OCC)c1N
inactive: OVCAR-5 > 100 µM | COLO 205 > 100 µM | A549 > 100 µM | OVCAR-3 > 100 µM | NCI-H226 > 100 µM | CCRF-CEM > 100 µM | 786-0 > 100 µM | NCI-H460 > 100 µM | UACC-257 > 100 µM | NCI-H522 > 100 µM | SF-268 2.11 µM | MOLT-4 > 100 µM | Malme-3M > 100 µM | TK-10 > 100 µM | SNB-75 > 100 µM | EKVX > 100 µM

NC(=S)N/N=C/C(=C/Nc1ccccc1)[N+](=O)[O-]
inactive: OVCAR-5 > 100 µM | COLO 205 > 100 µM | A549 > 100 µM | OVCAR-3 > 100 µM | NCI-H226 53 µM | CCRF-CEM > 100 µM | 786-0 > 100 µM | UACC-257 > 100 µM | NCI-H522 > 100 µM | SF-268 > 100 µM | HOP-62 > 100 µM | Malme-3M > 100 µM | TK-10 > 100 µM | SNB-75 > 100 µM | EKVX > 100 µM

O=C(/C=C/c1ccc(Cl)cc1)c1ccc(Cl)c(Cl)c1
inactive: OVCAR-5 > 10 µM | COLO 205 > 10 µM | A549 23.7 µM | OVCAR-3 21.7 µM | NCI-H226 14 µM | CCRF-CEM 16.2 µM | 786-0 25.5 µM | NCI-H460 34.6 µM | UACC-257 29.6 µM | NCI-H522 18.8 µM | SF-268 20.7 µM | HOP-62 22 µM | MOLT-4 20.5 µM | Malme-3M 25.1 µM | TK-10 > 10 µM | SNB-75 19.6 µM | EKVX 26.4 µM
